Results published in patent publication US9597417B2, “Compositions and methods to evaluate hepatobiliary/gastrointestinal health, enterohepatic circulation, and drug interactions” (The United States of America as represented by the …, priority 2013, dated 2017).
≈ marks a conversion by molar mass, not a printed value. Where “and” joins values, the source holds several entries; their conditions need not be identical. Identical values can stand only once. Entries after “also recorded” stand apart in the source; their conditions may differ. Like-named read-outs stand apart in the source and are kept apart here.

Experiments:
[1] = target: T1, human Na+/taurocholate cotransporting polypeptide (hNTCP) (Homo sapiens, UniProt Q14973); conditions: literature / historic data, same cell line; read-out: NTCP Km; cited from earlier work
T1 sequence (Q14973 1-349): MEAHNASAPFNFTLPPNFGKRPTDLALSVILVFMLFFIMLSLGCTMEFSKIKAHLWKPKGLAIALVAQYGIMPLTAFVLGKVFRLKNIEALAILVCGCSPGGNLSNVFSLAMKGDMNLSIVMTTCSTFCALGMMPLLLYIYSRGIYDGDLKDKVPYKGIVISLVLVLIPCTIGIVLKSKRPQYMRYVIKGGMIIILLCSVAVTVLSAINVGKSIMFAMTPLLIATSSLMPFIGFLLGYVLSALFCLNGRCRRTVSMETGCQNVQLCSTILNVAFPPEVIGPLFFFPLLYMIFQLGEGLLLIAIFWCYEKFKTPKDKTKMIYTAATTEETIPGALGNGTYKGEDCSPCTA

[2] = Murine gallbladder imaging (mouse 6), 19F MRI and LC/MS/MS; assay type: in vivo, C57BL/6 mice; conditions: for concentration at 8.2 h: male, mouse 6, after imaging
[3] = target: T2, hNTCP (sodium-independent passive uptake) (Homo sapiens, UniProt Q14973); assay: Uptake of substrate by NTCP in NTCP-HEK cells; assay type: cell-based; conditions: human; NTCP-HEK cells, sodium free buffer; read-out: passive permeability (Pp)
T2 sequence (Q14973 1-349): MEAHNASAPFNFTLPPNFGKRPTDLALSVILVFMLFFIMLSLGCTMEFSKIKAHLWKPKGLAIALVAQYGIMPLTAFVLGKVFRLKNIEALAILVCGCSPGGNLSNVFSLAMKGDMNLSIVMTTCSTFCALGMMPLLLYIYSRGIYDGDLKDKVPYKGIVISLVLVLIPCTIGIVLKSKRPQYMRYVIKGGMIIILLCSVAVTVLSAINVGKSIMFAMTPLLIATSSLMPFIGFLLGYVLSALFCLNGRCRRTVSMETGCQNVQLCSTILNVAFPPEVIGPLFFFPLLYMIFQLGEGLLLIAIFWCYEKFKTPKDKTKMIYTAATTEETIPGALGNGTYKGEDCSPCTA

[4] = target: T1, human Na+/taurocholate cotransporting polypeptide (hNTCP); assay: Uptake of substrate by NTCP in NTCP-HEK cells; assay type: cell-based; conditions: NTCP uptake
[5] = target: T3, human apical sodium dependent bile acid transporter (hASBT) (Homo sapiens, UniProt Q12908); assay: Inhibition of taurocholate uptake by ASBT in stably transfected ASBT-MDCK cells; assay type: cell-based
T3 sequence (Q12908 1-348): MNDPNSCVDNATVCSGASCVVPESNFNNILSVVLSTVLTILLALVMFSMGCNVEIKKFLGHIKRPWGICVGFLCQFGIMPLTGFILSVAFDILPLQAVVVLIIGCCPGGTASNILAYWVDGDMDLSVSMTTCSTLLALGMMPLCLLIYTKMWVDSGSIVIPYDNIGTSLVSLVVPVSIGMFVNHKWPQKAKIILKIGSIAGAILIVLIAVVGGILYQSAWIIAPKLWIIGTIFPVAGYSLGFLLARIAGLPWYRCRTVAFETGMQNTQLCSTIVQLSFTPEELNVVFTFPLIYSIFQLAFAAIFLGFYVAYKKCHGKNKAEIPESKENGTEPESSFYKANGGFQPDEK

Solubility in buffer = assay type: physicochemical; conditions: phosphate buffer, aqueous buffer, thermodynamic from solid; pH 6.8, room temperature, overnight, n=3, ±SEM
Procedure: Five (5) mg of compound was added to silanized centrifuge tubes containing 100 μL phosphate buffer at pH 6.8 (n=3), shaken, and left overnight at room temperature. […] Supernatant was diluted 10,000-fold with 1:1 ACN:water and analyzed by LC/MS/MS.

[6] = target: choloylglycine hydrolase from Clostridium perfringens (Clostridium perfringens, UniProt P54965); conditions: 2 mM compound, 15 U CGH, pH 5.6, 37° C., ±SEM
Sequence of choloylglycine hydrolase from Clostridium perfringens (P54965 whole entry, looked up): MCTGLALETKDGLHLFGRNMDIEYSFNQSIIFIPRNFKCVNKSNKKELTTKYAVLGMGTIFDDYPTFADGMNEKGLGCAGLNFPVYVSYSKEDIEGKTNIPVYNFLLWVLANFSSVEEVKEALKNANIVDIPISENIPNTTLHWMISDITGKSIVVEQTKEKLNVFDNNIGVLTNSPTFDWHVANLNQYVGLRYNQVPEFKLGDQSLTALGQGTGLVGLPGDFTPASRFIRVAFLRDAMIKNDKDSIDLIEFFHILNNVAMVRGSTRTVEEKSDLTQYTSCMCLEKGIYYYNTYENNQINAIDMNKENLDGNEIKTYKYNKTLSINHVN

[7] = Oral disposition characterization: pilot study in mice; conditions: for concentration at 7 h: male, C57BL/6, mouse, po
[8] = target: T1, human Na+/taurocholate cotransporting polypeptide (hNTCP); assay: Inhibition of taurocholate uptake by NTCP in stably transfected NTCP-HEK cells; assay type: cell-based
[9] = In vitro stability in 0.1 M HCl, rat plasma, rat liver s9 fraction and simulated intestinal fluid; conditions: 37° C.
[10] = target: T4, hASBT (sodium-independent passive uptake) (Homo sapiens, UniProt Q12908); assay: Uptake of substrate by ASBT in ASBT-MDCK cells; assay type: cell-based; conditions: human; ASBT-MDCK cells, sodium free buffer; read-out: passive permeability (Pp)
T4 sequence (Q12908 1-348): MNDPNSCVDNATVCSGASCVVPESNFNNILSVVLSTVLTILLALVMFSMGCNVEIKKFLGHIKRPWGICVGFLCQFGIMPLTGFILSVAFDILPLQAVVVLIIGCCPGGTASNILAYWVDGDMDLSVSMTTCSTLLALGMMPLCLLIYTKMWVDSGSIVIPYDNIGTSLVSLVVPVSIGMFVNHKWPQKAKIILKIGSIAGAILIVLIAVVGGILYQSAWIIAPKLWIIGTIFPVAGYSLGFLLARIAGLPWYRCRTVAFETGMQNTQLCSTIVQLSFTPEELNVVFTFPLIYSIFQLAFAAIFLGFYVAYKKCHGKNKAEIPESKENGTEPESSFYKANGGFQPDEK

[11] = target: T3, human apical sodium dependent bile acid transporter (hASBT); assay: Uptake of substrate by ASBT in ASBT-MDCK cells; assay type: cell-based; conditions: ASBT uptake
[12] = Disposition in Asbt knockout (Slc10a2-/-) and wild-type mice; assay type: in vivo; conditions: for gallbladder concentration / concentration at 7 h: n=4, 7 h after gavage 150 mg/kg, ±SEM; for gallbladder concentration: LC/MS/MS; for concentration at 7 h: mouse, oral, 150 mg/kg
Procedure: Asbt-deficient (Slc10a2-/-) mice were obtained from a colony maintained at the Wake Forest School of Medicine. […] Gallbladder, liver, and plasma samples were collected at 7 h after dosing, and tissues were processed as described above and analyzed by LC/MS/MS.

[13] = substrate: [H][C@@]12C[C@H](O)CC[C@]1(C)[C@@]1([H])C[C@H](O)[C@@]3(C)[C@@]([H])(CC[C@]3([H])C(C)CCC(=O)N(CCNC(=O)C(F)(F)F)CC(=O)O)[C@]1([H])[C@H](O)C2; assay: Uptake of substrate by NTCP in NTCP-HEK cells; assay type: cell-based, human; conditions: other: uptake, 0-200 uM donor, hNTCP-HEK cells, ±SEM; 37.0 °C
[14] = substrate: [H][C@@]12C[C@H](O)CC[C@]1(C)[C@@]1([H])C[C@H](O)[C@@]3(C)[C@@]([H])(CC[C@]3([H])C(C)CCC(=O)N(CCNC(=O)C(F)(F)F)CC(=O)O)[C@]1([H])[C@H](O)C2; assay: Uptake of substrate by ASBT in ASBT-MDCK cells; assay type: cell-based, human; conditions: other: uptake, 0-200 uM donor, hASBT-MDCK cells, ±SEM; 37.0 °C
[15] = individual mice 1-5, 7 h after oral 150 mg/kg, LC/MS/MS, 150 mg/kg

C[C@H](CCC(=O)NCCS(=O)(=O)O)[C@H]1CC[C@H]2[C@@H]3[C@H](O)C[C@@H]4C[C@H](O)CC[C@]4(C)[C@H]3C[C@H](O)[C@]12C [taurocholate]
Km [1]: 5.31 µM

CC(CCC(=O)N(CCNC(=O)C(F)(F)F)CC(=O)O)[C@H]1CC[C@H]2[C@@H]3[C@H](O)C[C@@H]4C[C@H](O)CC[C@]4(C)[C@H]3C[C@H](O)[C@]12C (stereo partly shown) [CA-sar-TFMA, Cholic acid-sarcosine-trifluoro-N-methyl-acetamide]
concentration at 8.2 h ([2]; C57BL/6, liver, oral 150 mg/kg, read-out: liver concentration): 7660 nM
concentration at 8.2 h ([2]; C57BL/6, plasma, oral 150 mg/kg, read-out: plasma concentration): 870 nM
LC/MS/MS gallbladder concentration, fold lower than by MRI ([2]; mouse 6): 2.3 fold
gallbladder concentration by 19F MRI (gallbladder ROI normalized to phantom ROI) ([2]; mouse 6, 6.2-8.2 h after oral gavage of 150 mg/kg): 34.2 mM
gallbladder concentration by LC/MS/MS ([2]; mouse 6, after imaging and euthanasia, oral 150 mg/kg): 14.8 mM
Papp [3]: 0.043 ×10⁻⁶ cm/s
normVmax (normalized to taurocholate Vmax on the same occasion) [4]: 0.24
Ki [5]: 21.5 ± 4 µM
solubility (Solubility in buffer): 33500 ± 1600 µM (≈ 20.3 mg/mL)
compound remaining after 4 h [6]: 103.9±2.9%
Gallbladder Conc. [7, 15]: 16.5 mM (2×) and 25.0 mM and 17.2 mM and 16.9 mM
Liver Conc. [7, 15]: 20.8 µM and 16.0 µM and 12.9 µM and 9.5 µM and 13.5 µM
Plasma Conc. [7, 15]: 1490 nM and 1810 nM and 940 nM and 1470 nM
concentration at 7 h ([7]; liver, 150 mg/kg, Average liver concentration, mean of mice 1-5, 7 h after oral 150 mg/kg, ±SEM): 14500 ± 600 nM
concentration at 7 h ([7]; plasma, 150 mg/kg, Average plasma concentration, mean of mice 1-5, 7 h after oral 150 mg/kg, ±SEM): 1400 ± 140 nM
concentration at 7 h ([7]; plasma, 150 mg/kg, Plasma Conc., individual mice 1-5, 7 h after oral 150 mg/kg, LC/MS/MS): 1310 nM
Average gallbladder concentration ([7]; mean of mice 1-5, 7 h after oral 150 mg/kg, ±SEM): 18.4 ± 1.6 mM
accumulation in liver and plasma, fold lower than in gallbladder ([7]; on average, 7 h after oral 150 mg/kg): at least 1,000 fold
Ki [8]: 2.64 ± 0.55 µM
stability: concentration at t=4 h vs initial concentration ([9]; 0.1 M HCl, 5 μM): no evidence of degradation; also recorded: not different from initial concentration
stability: concentration at t=4 h vs initial concentration ([9]; rat plasma, 5 μM): no evidence of degradation; also recorded: not different from initial concentration
stability: concentration at t=4 h vs initial concentration ([9]; simulated intestinal fluid with pancreatic enzymes (SIF), pH 7.5, 5 μM): no evidence of degradation; also recorded: not different from initial concentration
Papp [10]: 0.21 ×10⁻⁶ cm/s
normVmax (normalized to taurocholate Vmax on the same occasion) [11]: 1.50
gallbladder concentration, fold higher in WT than in knockout mice ([12]; 7 h after gavage 150 mg/kg): 16.1 fold
gallbladder concentration ([12]; Asbt knockout (Slc10a2-/-) mice): 0.41 ± 0.14 mM
concentration at 7 h ([12]; liver, Asbt knockout mice, read-out: Liver concentration): 900 ± 30 nM
concentration at 7 h ([12]; liver, WT mice, read-out: Liver concentration): 4970 ± 1470 nM
concentration at 7 h ([12]; plasma, Asbt knockout mice, read-out: Plasma concentration): 220 ± 90 nM
concentration at 7 h ([12]; plasma, WT mice, read-out: Plasma concentration): 3800 ± 4150 nM
gallbladder concentration ([12]; wild-type (WT) mice): 6.61 ± 0.98 mM

B1: human Na+/taurocholate cotransporting polypeptide (hNTCP) (Homo sapiens) (protein)
chain: MEAHNASAPFNFTLPPNFGKRPTDLALSVILVFMLFFIMLSLGCTMEFSKIKAHLWKPKGLAIALVAQYGIMPLTAFVLGKVFRLKNIEALAILVCGCSPGGNLSNVFSLAMKGDMNLSIVMTTCSTFCALGMMPLLLYIYSRGIYDGDLKDKVPYKGIVISLVLVLIPCTIGIVLKSKRPQYMRYVIKGGMIIILLCSVAVTVLSAINVGKSIMFAMTPLLIATSSLMPFIGFLLGYVLSALFCLNGRCRRTVSMETGCQNVQLCSTILNVAFPPEVIGPLFFFPLLYMIFQLGEGLLLIAIFWCYEKFKTPKDKTKMIYTAATTEETIPGALGNGTYKGEDCSPCTA
Km [13]: 2.19 ± 0.63 µM

B2: human apical sodium dependent bile acid transporter (hASBT) (Homo sapiens) (protein)
chain: MNDPNSCVDNATVCSGASCVVPESNFNNILSVVLSTVLTILLALVMFSMGCNVEIKKFLGHIKRPWGICVGFLCQFGIMPLTGFILSVAFDILPLQAVVVLIIGCCPGGTASNILAYWVDGDMDLSVSMTTCSTLLALGMMPLCLLIYTKMWVDSGSIVIPYDNIGTSLVSLVVPVSIGMFVNHKWPQKAKIILKIGSIAGAILIVLIAVVGGILYQSAWIIAPKLWIIGTIFPVAGYSLGFLLARIAGLPWYRCRTVAFETGMQNTQLCSTIVQLSFTPEELNVVFTFPLIYSIFQLAFAAIFLGFYVAYKKCHGKNKAEIPESKENGTEPESSFYKANGGFQPDEK
Km [14]: 73.2 ± 7.0 µM
